In brackets after ≈: the same amount, converted by molar mass. Activity calls are given as the source filed them. The rule behind the calls is not given here.
What was measured:
KB = assay: Cytotoxicity against human KB cells; format: functional; conditions: for EC50: read-out: ED50 (the source's name)
P388 = assay: Cytotoxicity against mouse P388 cells; format: functional; conditions: for EC50: read-out: ED50 (the source's name)

C=C[C@]12CN(C)[C@@H]3[C@H]4CO[C@H](C[C@H]41)[C@]1(C(=O)N(OC)c4ccccc41)[C@@H]32
ED50 (KB): inactive
ED50 (P388): inactive

COc1cc2ccc(=O)oc2cc1O
ED50 (KB): inactive
ED50 (P388): inactive

C/C=C1\CN2[C@H]3C[C@H]1[C@H](CO)[C@@H]2Cc1c3[nH]c2ccccc12
ED50 (KB): inactive
ED50 (P388): inactive

CC(=O)C1=CC[C@H]2[C@@H]3CC[C@H]4CC(=O)CC[C@]4(C)[C@H]3C[C@@H](O)[C@]12C
EC50 (KB): 0.7 µg/mL (≈ 2.12 µM)
EC50 (P388): 0.9 µg/mL (≈ 2.72 µM)

CCC1=N[C@H]2C[C@@]3(C(=O)N(OC)c4ccccc43)[C@@H]3OC[C@H]2[C@H]1[C@@H]3O
ED50 (KB): inactive
ED50 (P388): inactive

C=C[C@]12CN(C)[C@@H]3[C@H]4CO[C@H](C[C@H]41)[C@]1(C(=O)Nc4ccccc41)[C@@H]32
ED50 (KB): inactive
ED50 (P388): inactive

CC[C@H]1N[C@H]2C[C@@]3(C(=O)N(OC)c4ccccc43)[C@@H]3OC[C@H]2[C@H]1[C@@H]3O
ED50 (KB): inactive
ED50 (P388): inactive

C=C[C@]12C(=O)N(C)[C@@H]3[C@H]4CO[C@H](C[C@H]41)[C@]1(C(=O)Nc4ccccc41)[C@@H]32
ED50 (KB): inactive
ED50 (P388): inactive

C/C=C1\CN(C)[C@H]2C[C@@]3(C(=O)N(OC)c4ccccc43)[C@H]3C[C@@H]1[C@@H]2CO3
ED50 (KB): inactive
ED50 (P388): inactive

CCC1=N[C@H]2C[C@@]3(C(=O)N(OC)c4ccccc43)[C@H]3C[C@@H]1[C@@H]2CO3
ED50 (KB): inactive
ED50 (P388): inactive

CC[C@H]1N[C@H]2C[C@@]3(C(=O)N(OC)c4ccccc43)[C@H]3C[C@@H]1[C@@H]2CO3
ED50 (KB): inactive
ED50 (P388): inactive

CC(=O)C1=CC[C@H]2[C@@H]3CCC4=CC(=O)CC[C@]4(C)[C@H]3C[C@@H](O)[C@]12C
EC50 (KB): 2 µg/mL (≈ 6.09 µM)
EC50 (P388): 2.8 µg/mL (≈ 8.52 µM)

C[C@H]1[C@H](C)CC[C@]2(C(=O)O)CC[C@]3(C)C(=CC[C@@H]4[C@@]5(C)CC[C@H](O)C(C)(C)[C@@H]5CC[C@]43C)[C@H]12
ED50 (KB): inactive
ED50 (P388): inactive

— ChEMBL document CHEMBL1150710, “Cytotoxic steroids of Gelsemium sempervirens” (1987)
